Reference: PubChem BioAssay AID1963971 (Molecular Pharmacology Branch, DTP, NCI, 2024)
pIC50: −log10 of the molar value.

Tested on: 953936-095-R-J2-PDC spheroids with HUVEC/MSC, viability
Assay: Anticancer human tumor 953936-095-R-J2-PDC patient-derived cervical squamous cell carcinoma cell line growth inhibition [PI3K]
Conditions: for pIC50: curve of first compound; for viability, T/C: stronger effect = lower value
Summary of the method: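 Viability of mixed-cell spheroids was determined after exposure to pairwise combinations, one partner being inavolisib, alpelisib, duvelisib or copanlisib. Highest tested concentration matched clinical Cmax where known and 10 microM where not, descending in half-log steps.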

[1] = second compound 0.00316 µM, first compound 0.0316 µM
[2] = second compound 0.00316 µM, first compound 0.1 µM
[3] = second compound 0.00316 µM, first compound 0.316 µM
[4] = second compound 0.00316 µM, first compound 1 µM
[5] = second compound 0.00316 µM, first compound 3.16 µM
[6] = second compound 0.00316 µM, first compound 10 µM
[7] = second compound 0.01 µM, first compound 0.0316 µM
[8] = second compound 0.01 µM, first compound 0.1 µM
[9] = second compound 0.01 µM, first compound 0.316 µM
[10] = second compound 0.01 µM, first compound 1 µM
[11] = second compound 0.01 µM, first compound 3.16 µM
[12] = second compound 0.01 µM, first compound 10 µM
[13] = second compound 0.0316 µM, first compound 0.0316 µM
[14] = second compound 0.0316 µM, first compound 0.1 µM
[15] = second compound 0.0316 µM, first compound 0.316 µM
[16] = second compound 0.0316 µM, first compound 1 µM
[17] = second compound 0.0316 µM, first compound 3.16 µM
[18] = second compound 0.0316 µM, first compound 10 µM
[19] = second compound 0.1 µM, first compound 0.0316 µM
[20] = second compound 0.1 µM, first compound 0.1 µM
[21] = second compound 0.1 µM, first compound 0.316 µM
[22] = second compound 0.1 µM, first compound 1 µM
[23] = second compound 0.1 µM, first compound 3.16 µM
[24] = second compound 0.1 µM, first compound 10 µM
[25] = second compound 0.316 µM, first compound 0.0316 µM
[26] = second compound 0.316 µM, first compound 0.1 µM
[27] = second compound 0.316 µM, first compound 0.316 µM
[28] = second compound 0.316 µM, first compound 1 µM
[29] = second compound 0.316 µM, first compound 3.16 µM
[30] = second compound 0.316 µM, first compound 10 µM
[31] = second compound 1 µM, first compound 0.0316 µM
[32] = second compound 1 µM, first compound 0.1 µM
[33] = second compound 1 µM, first compound 0.316 µM
[34] = second compound 1 µM, first compound 1 µM
[35] = second compound 1 µM, first compound 3.16 µM
[36] = second compound 1 µM, first compound 10 µM
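Also: spheroids exposed to compounds for seven days before read-out.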

CC(Cn1ccc(-c2ccc(C#N)c(Cl)c2)n1)NC(=O)c1cc(C(C)O)[nH]n1 (stereo unspecified) + COc1c(OCCCN2CCOCC2)ccc2c3n(c(=NC(=O)c4cnc(N)nc4)nc12)CCN3
pIC50 (second compound 0.00316 µM): < 5.00
pIC50 (second compound 0.01 µM): < 5.00
pIC50 (second compound 0.0316 µM): > 7.50
pIC50 (second compound 0.1 µM): > 7.50
pIC50 (second compound 0.316 µM): > 7.50
pIC50 (second compound 1 µM): > 7.50
viability, T/C [1]: 80.3%
viability, T/C [2]: 88.3%
viability, T/C [3]: 84.1%
viability, T/C [4]: 101%
viability, T/C [5]: 90.7%
viability, T/C [6]: 89.2%
viability, T/C [7]: 68.8%
viability, T/C [8]: 71.6%
viability, T/C [9]: 76.3%
viability, T/C [10]: 71.1%
viability, T/C [11]: 78.9%
viability, T/C [12]: 70.2%
viability, T/C [13]: 43.5%
viability, T/C [14]: 40.9%
viability, T/C [15]: 42.6%
viability, T/C [16]: 39.8%
viability, T/C [17]: 46.2%
viability, T/C [18]: 41.1%
viability, T/C [19]: 19.4%
viability, T/C [20]: 19.4%
viability, T/C [21]: 20.7%
viability, T/C [22]: 20.3%
viability, T/C [23]: 21.8%
viability, T/C [24]: 19.8%
viability, T/C [25]: 7.44%
viability, T/C [26]: 6.25%
viability, T/C [27]: 7.53%
viability, T/C [28]: 6.55%
viability, T/C [29]: 7.13%
viability, T/C [30]: 8.7%
viability, T/C [31]: 1.6%
viability, T/C [32]: 1.39%
viability, T/C [33]: 2%
viability, T/C [34]: 1.92%
viability, T/C [35]: 2.08%
viability, T/C [36]: 1.97%

CC1(C)CCC(Nc2ncc(C(F)(F)F)c(-c3c[nH]c4c(P(C)(C)=O)c(C#N)ccc34)n2)CN1 (stereo unspecified) + COc1c(OCCCN2CCOCC2)ccc2c3n(c(=NC(=O)c4cnc(N)nc4)nc12)CCN3
pIC50 (second compound 0.00316 µM): 7.50
pIC50 (second compound 0.01 µM): > 7.50
pIC50 (second compound 0.0316 µM): > 7.50
pIC50 (second compound 0.1 µM): > 7.50
pIC50 (second compound 0.316 µM): > 7.50
pIC50 (second compound 1 µM): > 7.50
viability, T/C [1]: 45.6%
viability, T/C [2]: 47%
viability, T/C [3]: 53.5%
viability, T/C [4]: 47.1%
viability, T/C [5]: 52%
viability, T/C [6]: 5.49%
viability, T/C [7]: 46.2%
viability, T/C [8]: 42.2%
viability, T/C [9]: 49.5%
viability, T/C [10]: 35.5%
viability, T/C [11]: 44%
viability, T/C [12]: 6.01%
viability, T/C [13]: 26.9%
viability, T/C [14]: 22.6%
viability, T/C [15]: 25.4%
viability, T/C [16]: 25.5%
viability, T/C [17]: 24.4%
viability, T/C [18]: 1.19%
viability, T/C [19]: 11.9%
viability, T/C [20]: 16.5%
viability, T/C [21]: 12.2%
viability, T/C [22]: 11.8%
viability, T/C [23]: 8.68%
viability, T/C [24]: 0.34%
viability, T/C [25]: 5.51%
viability, T/C [26]: 5.07%
viability, T/C [27]: 3.84%
viability, T/C [28]: 4.98%
viability, T/C [29]: 3.94%
viability, T/C [30]: 0.16%
viability, T/C [31]: 1.33%
viability, T/C [32]: 1.62%
viability, T/C [33]: 1.12%
viability, T/C [34]: 1.34%
viability, T/C [35]: 1.37%
viability, T/C [36]: 0.31%

Cn1nccc1Nc1nccc(-c2ccn(C(CO)c3ccc(Cl)c(F)c3)c(=O)c2)n1 (stereo unspecified) + COc1c(OCCCN2CCOCC2)ccc2c3n(c(=NC(=O)c4cnc(N)nc4)nc12)CCN3
pIC50 (second compound 0.00316 µM): < 5.00
pIC50 (second compound 0.01 µM): < 5.00
pIC50 (second compound 0.0316 µM): > 7.50
pIC50 (second compound 0.1 µM): > 7.50
pIC50 (second compound 0.316 µM): > 7.50
pIC50 (second compound 1 µM): > 7.50
viability, T/C [1]: 79.8%
viability, T/C [2]: 78.6%
viability, T/C [3]: 85.1%
viability, T/C [4]: 68.8%
viability, T/C [5]: 69.8%
viability, T/C [6]: 67.5%
viability, T/C [7]: 63.5%
viability, T/C [8]: 64.7%
viability, T/C [9]: 67.3%
viability, T/C [10]: 61.7%
viability, T/C [11]: 59.4%
viability, T/C [12]: 49.1%
viability, T/C [13]: 39.4%
viability, T/C [14]: 38.2%
viability, T/C [15]: 36.2%
viability, T/C [16]: 30.5%
viability, T/C [17]: 32.3%
viability, T/C [18]: 31.4%
viability, T/C [19]: 16.1%
viability, T/C [20]: 15.6%
viability, T/C [21]: 12.8%
viability, T/C [22]: 10.8%
viability, T/C [23]: 8.15%
viability, T/C [24]: 5.83%
viability, T/C [25]: 4.89%
viability, T/C [26]: 4.56%
viability, T/C [27]: 3.55%
viability, T/C [28]: 2.04%
viability, T/C [29]: 1.28%
viability, T/C [30]: 1.21%
viability, T/C [31]: 1.1%
viability, T/C [32]: 1.11%
viability, T/C [33]: 0.44%
viability, T/C [34]: 0.35%
viability, T/C [35]: 0.28%
viability, T/C [36]: 0.34%
